Results taken from patent EP3682883A1, “QUINOLINE DERIVATIVE FOR TREATMENT OF NEUROENDOCRINE TUMORS” (Chia Tai Tianqing Pharmaceutical Group Co., Ltd., priority 2017, dated 2019).

How the values were obtained:
Type in all cases: in vivo, human
[1] = system: retroperitoneal neuroendocrine tumor; experiment: Clinical case Example 5: treatment of a patient, CT scan of target lesions; conditions: prior therapy in patient history
[2] = system: ampullary neuroendocrine tumor; experiment: Clinical case Example 10: treatment of a patient, CT scan of metastatic lesions; conditions: prior therapy in patient history; 10mg qd orally; CT and MRI on May 25, 2018
Text: A patient, underwent a laparotomy on August 18, 2016, the gallbladder, distal part of the stomach, duodenum, and part of the pancreas were removed. […] The patient was diagnosed with ampullary neuroendocrine tumor (high proliferative activity, mitotic count, […]) on November 4, 2016, which was located in the ampulla, the common bile duct, duodenal papilla and major pancreatic duct were invaded, intravascular tumor thrombus was visible and pancreatic tissue was also invaded, immunohistochemistry: AFP (-).
10mg of everolimus (qd) was administered orally from February 7 to May 25, 2018, and the efficacy was evaluated as SD on March 29, 2018.
A daily dose of 12 mg of dihydrochloride of Compound I capsule was given once a day from July 4, 2018 (two-week administration period and one-week withdrawal period, i.e. three weeks as one treatment cycle).

[3] = system: neuroendocrine tumor which tend to be atypical carcinoid; experiment: Clinical case Example 4: treatment of a patient, CT scan of target lesions; conditions: prior therapy in patient history; 4 mg once a month; after two cycles
Method: A patient was diagnosed with neuroendocrine tumor which tend to be atypical carcinoid after a chest tumor puncture by pathology exam, then the patient was treated with chemotherapy of paclitaxel, etoposide and cisplatin for three cycles, a CT scan was performed after the treatment, efficacy of the therapy was evaluated as SD, followed by Right anterior mediastinal mass resection and partial right upper lobe resection. […] Local chest radiotherapy was performed in the first to second month after operation, and evaluated as SD after the treatment, during which III° radiation esophagitis occurred. […] Temozolomide and capecitabine was then given for 2 cycles from the 23rd month to 25th month after operation, and efficacy was evaluated as SD (large), during this period, pain in both lower extremities occurred, and even got worse. Then 4 mg of zoledronic acid was given once a month, the efficacy was evaluated as PD by CT scan after two cycles of the treatment, followingly, Shanlong (octreotide acetate microspheres for injection) was given for 1 cycle, the efficacy was evaluated as PD by CT scan which was performed after 27 months postoperatively, and the sum of the target lesion diameters was 179 mm. […]

thymosin
reexamination (prior therapy) ([1]; Saisheng and thymosin given together): no response

CO[C@H]1C[C@@H]2CC[C@@H](C)[C@@](O)(O2)C(=O)C(=O)N2CCCC[C@H]2C(=O)O[C@H]([C@H](C)C[C@@H]2CC[C@@H](OCCO)[C@H](OC)C2)CC(=O)[C@H](C)/C=C(\C)[C@@H](O)[C@@H](OC)C(=O)[C@H](C)C[C@H](C)/C=C/C=C/C=C/1C [everolimus]
CT and MRI result (prior therapy) [2]: the disease progressed

O=P(O)(O)C(O)(Cn1ccnc1)P(=O)(O)O [zoledronic acid]
efficacy evaluated by CT scan (prior therapy) [3]: PD (the sum of the diameters of target lesions of tumor increased by more than 20% from the baseline level)

CCN(CC)CCNC(=O)c1c(C)[nH]c(/C=C2\C(=O)Nc3ccc(F)cc32)c1C [sunitinib malate]
efficacy evaluated (prior therapy) ([1]; after Saisheng and thymosin): PD (the sum of the diameters of target lesions of tumor increased by more than 20% from the baseline level)
